From PubChem BioAssay AID248 (DTP/NCI, 2004)
Where “and” joins values, the source holds several entries; their conditions need not be identical. Equal entries are not always repeated. Toxic doses and inconclusive results are not listed.

Tested on: L1210 leukemia ip in BDF1 mice, survival T/C
Test: NCI In Vivo Anticancer Drug Screen. Data for tumor model L1210 Leukemia (intraperitoneal) in B6D2F1 (BDF1) mice
Conditions: endpoint: mean survival time, higher = longer survival
Procedure, shortened: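 Tumor cells were implanted, animals were treated, and survival was followed. The result divides the treated measurement by the vehicle-control measurement.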

[1] = dose: 50.0 mg/kg/injection, schedule: Q01DX001 (ip), vehicle: saline
[2] = dose: 100.0 mg/kg/injection, schedule: Q01DX001 (ip), vehicle: saline
[3] = dose: 100.0 mg/kg/injection, schedule: Q04DX003 (ip), vehicle: saline
[4] = dose: 100.0 mg/kg/injection, schedule: Q01DX001 (ip), vehicle: Klucel (hydroxypropylcellulose) (HPC)
[5] = dose: 200.0 mg/kg/injection, schedule: Q01DX001 (ip), vehicle: Klucel (hydroxypropylcellulose) (HPC)
[6] = dose: 400.0 mg/kg/injection, schedule: Q01DX001 (ip), vehicle: Klucel (hydroxypropylcellulose) (HPC)
[7] = dose: 100.0 mg/kg/injection, schedule: Q04DX003 (ip), vehicle: saline with Tween-80
[8] = dose: 200.0 mg/kg/injection, schedule: Q04DX003 (ip), vehicle: saline with Tween-80
[9] = dose: 400.0 mg/kg/injection, schedule: Q04DX003 (ip), vehicle: saline with Tween-80
[10] = dose: 100.0 mg/kg/injection, schedule: Q01DX009 (ip), vehicle: Klucel (hydroxypropylcellulose) (HPC)
[11] = dose: 200.0 mg/kg/injection, schedule: Q01DX009 (ip), vehicle: Klucel (hydroxypropylcellulose) (HPC)
[12] = dose: 400.0 mg/kg/injection, schedule: Q01DX009 (ip), vehicle: Klucel (hydroxypropylcellulose) (HPC)
[13] = dose: 100.0 mg/kg/injection, schedule: Q01DX001 (ip), vehicle: saline with Tween-80
[14] = dose: 200.0 mg/kg/injection, schedule: Q01DX001 (ip), vehicle: saline with Tween-80
[15] = dose: 400.0 mg/kg/injection, schedule: Q01DX001 (ip), vehicle: saline with Tween-80
[16] = dose: 100.0 mg/kg/injection, schedule: Q04DX003 (ip), vehicle: Klucel (hydroxypropylcellulose) (HPC)
[17] = dose: 200.0 mg/kg/injection, schedule: Q04DX003 (ip), vehicle: Klucel (hydroxypropylcellulose) (HPC)
[18] = dose: 400.0 mg/kg/injection, schedule: Q04DX003 (ip), vehicle: Klucel (hydroxypropylcellulose) (HPC)
[19] = dose: 200.0 mg/kg/injection, schedule: Q01DX001 (ip), vehicle: saline
[20] = dose: 100.0 mg/kg/injection, schedule: Q04DX002 (ip), vehicle: saline with Tween-80
[21] = dose: 200.0 mg/kg/injection, schedule: Q04DX002 (ip), vehicle: saline with Tween-80
[22] = dose: 100.0 mg/kg/injection, schedule: Q01DX009 (ip), vehicle: saline with Tween-80
[23] = dose: 200.0 mg/kg/injection, schedule: Q01DX009 (ip), vehicle: saline with Tween-80
[24] = dose: 400.0 mg/kg/injection, schedule: Q01DX009 (ip), vehicle: saline with Tween-80

For `OCCOCCN1CCN(CC/C=C2\c3ccccc3Sc3ccc(C(F)(F)F)cc32)CC1`, the T/C (dose: 1.56 mg/kg/injection, schedule: Q01DX009 (ip), vehicle: saline) was 104 % of control, the T/C (dose: 1.56 mg/kg/injection, schedule: Q04DX003 (ip), vehicle: saline) was 100 % of control and the T/C (dose: 2.5 mg/kg/injection, schedule: Q01DX009 (ip), vehicle: saline) was 98 % of control. For the same molecule, the T/C (dose: 3.12 mg/kg/injection, schedule: Q01DX009 (ip), vehicle: saline) was 111 % of control, the T/C (dose: 3.12 mg/kg/injection, schedule: Q04DX003 (ip), vehicle: saline) was 94 % of control and the T/C (dose: 5.0 mg/kg/injection, schedule: Q01DX009 (ip), vehicle: saline) was 108 % of control. The T/C (dose: 6.25 mg/kg/injection, schedule: Q01DX009 (ip), vehicle: saline) was 106 % of control, the T/C (dose: 6.25 mg/kg/injection, schedule: Q04DX003 (ip), vehicle: saline) was 101 % of control and the T/C (dose: 6.9 mg/kg/injection, schedule: Q01DX015 (ip), vehicle: saline) was 115 % of control. For the same molecule, the T/C (dose: 8.0 mg/kg/injection, schedule: Q04DX003 (ip), vehicle: saline with Tween-80) was 116 % of control, the T/C (dose: 9.2 mg/kg/injection, schedule: Q01DX009 (ip), vehicle: saline) was 103 % of control and the T/C (dose: 10.0 mg/kg/injection, schedule: Q01DX009 (ip), vehicle: saline) was 117 % of control. The T/C (dose: 10.3 mg/kg/injection, schedule: Q01DX015 (ip), vehicle: saline) was 105 % of control, the T/C (dose: 14.0 mg/kg/injection, schedule: Q01DX009 (ip), vehicle: saline) was 117 % of control and the T/C (dose: 20.0 mg/kg/injection, schedule: Q01DX009 (ip), vehicle: saline) was 117 % of control. The T/C (dose: 21.0 mg/kg/injection, schedule: Q01DX009 (ip), vehicle: saline) was 88 % of control, the T/C (dose: 25.0 mg/kg/injection, schedule: Q01DX001 (ip), vehicle: saline) was 116 % of control and the T/C (dose: 40.0 mg/kg/injection, schedule: Q01DX009 (ip), vehicle: saline) was 96 % of control. The T/C [1] was 105 % of control and 114 % of control, the T/C [2] was 108 % of control and the T/C [3] was 123 % of control.
`COC(=O)CC1(CC(=O)OC)C(=O)N(c2ccccc2)c2ccccc21` was tested, and the T/C [4] was 90 % of control, the T/C [5] was 93 % of control and the T/C [6] was 93 % of control.
For `Cc1ccc2nc(-c3cccc([N+](=O)[O-])c3)oc(=O)c2c1`, the T/C [7] was 87 % of control, the T/C [8] was 97 % of control and the T/C [9] was 97 % of control.
With `COc1ccc2nc3ccccc3c(N)c2c1` the T/C (dose: 5.0 mg/kg/injection, schedule: Q01DX001 (ip), vehicle: saline) was 100 % of control, the T/C (dose: 10.0 mg/kg/injection, schedule: Q01DX001 (ip), vehicle: saline) was 100 % of control and the T/C (dose: 20.0 mg/kg/injection, schedule: Q01DX001 (ip), vehicle: saline) was 97 % of control. For the same molecule, the T/C (dose: 40.0 mg/kg/injection, schedule: Q01DX001 (ip), vehicle: saline) was 90 % of control.
In the case of `C(=Nc1ccccc1)c1ccccc1B1Oc2ccccc2O1`, the T/C [10] was 100 % of control, the T/C [11] was 96 % of control and the T/C [12] was 119 % of control.
In the case of `CC1(c2ccccc2)OCCCO1`, the T/C [13] was 100 % of control, the T/C [14] was 98 % of control and the T/C [15] was 107 % of control.
`COc1ccc(OC)c2c1CC1CC(=O)OC21C` (stereo not given) was tested, and the T/C [10] was 97 % of control, the T/C [16] was 97 % of control and the T/C [11] was 92 % of control. For the same molecule, the T/C [17] was 97 % of control, the T/C [12] was 97 % of control and the T/C [18] was 97 % of control.
With `CCCCCCCN=C(N)c1ccc(C(=O)OCc2ccccc2)cc1` the T/C [2] was 94 % of control and the T/C [19] was 90 % of control.
`CCCCCCCCCCCCCCCCC/C=N/Nc1nnc(N/N=C/CCCCCCCCCCCCCCCCC)c2ccccc12` was tested, and the T/C [1] was 95 % of control, the T/C [2] was 103 % of control and the T/C [19] was 101 % of control. For the same molecule, the T/C (dose: 400.0 mg/kg/injection, schedule: Q01DX001 (ip), vehicle: saline) was 101 % of control.
In the case of `COC1OC(COC(c2ccccc2)(c2ccccc2)c2ccccc2)C(OS(=O)(=O)c2ccc(C)cc2)C(OC(=O)c2ccccc2)C1OC(=O)c1ccccc1` (stereo not given), the T/C [20] was 114 % of control, the T/C [21] was 97 % of control and the T/C (dose: 400.0 mg/kg/injection, schedule: Q04DX002 (ip), vehicle: saline with Tween-80) was 90 % of control.
For `CCc1ccc(NC(=O)N(CCCl)N=O)cc1`, the T/C (dose: 10.0 mg/kg/injection, schedule: Q01DX009 (ip), vehicle: Klucel (hydroxypropylcellulose) (HPC)) was 168 % of control and 175 % of control, the T/C (dose: 20.0 mg/kg/injection, schedule: Q01DX009 (ip), vehicle: Klucel (hydroxypropylcellulose) (HPC)) was 157 % of control and 172 % of control and the T/C (dose: 25.0 mg/kg/injection, schedule: Q04DX003 (ip), vehicle: Klucel (hydroxypropylcellulose) (HPC)) was 124 % of control. For the same molecule, the T/C (dose: 40.0 mg/kg/injection, schedule: Q01DX009 (ip), vehicle: Klucel (hydroxypropylcellulose) (HPC)) was 88 % of control, the T/C (dose: 50.0 mg/kg/injection, schedule: Q04DX003 (ip), vehicle: Klucel (hydroxypropylcellulose) (HPC)) was 150 % of control and 159 % of control and the T/C (dose: 100.0 mg/kg/injection, schedule: Q01DX001 (ip), vehicle: carboxymethylcellulose (CMC)) was 101 % of control. For the same molecule, the T/C [17] was 105 % of control.
For `O=C(CCCCl)CC(O)(C(F)(F)F)C(F)(F)F`, the T/C [22] was 104 % of control, the T/C [7] was 101 % of control and the T/C [23] was 93 % of control. For the same molecule, the T/C [8] was 94 % of control and the T/C [9] was 100 % of control.
With `C=CC(C)C1CCC2(C)C3=C(C(=O)CC12C)C1(C)C/C(=N/O)C(O)C(C)(C)C1=C(O)C3=O` (stereo not given) the T/C [3] was 98 % of control, the T/C (dose: 200.0 mg/kg/injection, schedule: Q04DX003 (ip), vehicle: saline) was 95 % of control and the T/C (dose: 400.0 mg/kg/injection, schedule: Q04DX003 (ip), vehicle: saline) was 98 % of control.
With `O=C(O)c1ccc(CC2CCCC2)cc1` the T/C [4] was 96 % of control, the T/C [16] was 93 % of control and the T/C [5] was 103 % of control. The T/C [17] was 93 % of control, the T/C [6] was 97 % of control and the T/C [18] was 98 % of control.
For `COc1ccc(CCNC(=O)Cc2ccccc2)cc1OC`, the T/C (dose: 50.0 mg/kg/injection, schedule: Q01DX009 (ip), vehicle: saline with Tween-80) was 90 % of control, the T/C [22] was 93 % of control and the T/C [7] was 92 % of control. The T/C [23] was 94 % of control and 96 % of control, the T/C [8] was 92 % of control and the T/C [24] was 99 % of control.
In the case of `CN(C)c1nnc(-c2ccc(Cl)cc2)nn1`, the T/C [13] was 96 % of control, the T/C [14] was 92 % of control and the T/C [15] was 88 % of control.
For `COc1cc(Cl)ccc1NC(=O)Oc1ccc(F)cc1Cl`, the T/C [10] was 104 % of control, the T/C [11] was 108 % of control and the T/C [12] was 106 % of control.
`O=C(Nc1ccc(C(c2ccccc2)(c2ccccc2)c2ccccc2)cc1)C(Cl)Cl` was tested, and the T/C [10] was 91 % of control, the T/C [16] was 96 % of control and the T/C [11] was 97 % of control. For the same molecule, the T/C [17] was 95 % of control, the T/C [12] was 97 % of control and the T/C [18] was 94 % of control.
With `CC(C)(O)C[N+](=O)[O-]` the T/C (dose: 50.0 mg/kg/injection, schedule: Q01DX009 (ip), vehicle: saline) was 88 % of control, the T/C (dose: 100.0 mg/kg/injection, schedule: Q01DX009 (ip), vehicle: saline) was 88 % of control and the T/C (dose: 200.0 mg/kg/injection, schedule: Q01DX009 (ip), vehicle: saline) was 88 % of control.
With `O=C(NCCCCCCNC(=O)NCc1ccc(Cl)c(Cl)c1)NCc1ccc(Cl)c(Cl)c1` the T/C (dose: 100.0 mg/kg/injection, schedule: Q01DX009 (ip), vehicle: other) was 97 % of control, the T/C (dose: 200.0 mg/kg/injection, schedule: Q01DX009 (ip), vehicle: other) was 86 % of control and the T/C (dose: 400.0 mg/kg/injection, schedule: Q01DX009 (ip), vehicle: other) was 95 % of control.
With `O=C(O)c1c(Cl)c(Cl)c(C(=O)O)c(Cl)c1Cl` the T/C [22] was 95 % of control, the T/C [23] was 93 % of control and the T/C [24] was 89 % of control.
For `CC(C)=CCCC(C)CCOC(N)=O` (stereo not given), the T/C [20] was 104 % of control and the T/C [21] was 111 % of control.
`CC(C)(C(O)c1ccccc1)[N+](=O)[O-]` (stereo not given) was tested, and the T/C [7] was 101 % of control, the T/C [8] was 97 % of control and the T/C [9] was 101 % of control.
